The values below come from US20230303564A1, “PYRIMIDINE RING COMPOUND” (MEDSHINE DISCOVERY INC., priority 2020, published 2023).

The target in one data set is CDK1/CyclinB1 (Homo sapiens (Human), UniProt P06493). The data set can be described thus: CDK1/CyclinB1 enzyme activity test (ADP-Glo). In kind it is biochemical. The note with it: 25 μM ATP, 25° C. 120 minutes, read-out: CDK1/Cyclin B IC50. How it is done: CDK1/CyclinB1 Enzyme Reaction System
Enzymes, substrates, ATP, and inhibitors were diluted by kinase buffer in the kit. The compounds to be tested were diluted 5-fold with a multi-channel pipette to the eighth concentration, that is, from 50 μM to 0.65 nM, the concentration of DMSO was 5%, and a double-hole experiment was set up. 1 μL of each concentration gradient of inhibitors, 2 μL of CDK1/CyclinB1 enzyme (12.5 ng), 2 μL mixture of substrate and ATP (25 μM adenosine triphosphate, 0.2 μg/μL substrate) were added to the microplates, and the final concentration gradient of the compound was 10 μM to 0.13 nM. The reaction system was reacted at 25° C. for 120 minutes. After the reaction, 5 μL of ADP-Glo reagent was added to each well, the reaction was carried out at 25° C. for 40 minutes, after the reaction was completed, 10 μL of kinase detection reagent was added to each well, the reaction was carried out at 25° C. for 30 minutes, the multiple label analyzer was used to read the chemiluminescence with an integration time of 0.5 seconds.
The equation (Sample−Min)/(Max−Min)*100% was used to convert the raw data into inhibition rate, and the value of IC50 can be obtained by curve fitting with four parameters (obtained by log (inhibitor) vs. response-Variable slope mode in GraphPad Prism). The enzymatic inhibitory activity of the compounds of the present disclosure on CDK1/CyclinB1, CDK2/CyclinA2, CDK2/CyclinE1, CDK4/CyclinD1, CDK6/CyclinD1, CDK7/CyclinH/MAT1, CDK9/CyclinT1 was provided in Table 1.
(ADP-Glo first removes unused ATP, then detects ADP through luciferase.)

A further data set concerns OVCAR-3 cells. Description: Cell activity test, anti-proliferation (CellTiter Glo), OVCAR-3. In kind it is cell-based, human. The note with it: OVCAR-3, 7 days of culture. How it is done:
2) Day 1: Laying Cell Plates
(6) 0.7 mL of cell suspension was pipetted into the counting cup, the cells were counted on ViCell XR, and the cell suspension was diluted separately with culture medium to the required cell concentration for laying cell plates: 1000/30 ul.
(7) Microplates (2 plates) were required, 100 uL of phosphate buffered saline was added to the peripheral wells of the 384-well plate, 30 uL of cell suspension was added to the other wells, and the cell plate was placed into incubator for culture.
(1) Compound preparation: the stock solution of the compound to be tested was 10 mM.
(2) The compound to be tested was diluted 3 times with DMSO for 10 gradients.
(2) The compound to be tested was diluted with culture medium, and the highest final concentration was 10 μM.
(4) 10 μL of the compound was pipetted into the 384-well plate, and then the cell plate was placed back into the incubator for culture.
4) Adding CTG and Reading the Plate
(1) After 7 days of culture, 50 ul CellTiter Glo was added to the cell plate, shaken for 10 minutes in the dark, and left at room temperature for 5 minutes.
(2) The plate was read on Envision with the program: US LUM 384 (CPS). The experiment was originally stored in the personal disk:
1. The mean and standard deviation of 0% inhibition (DMSO row, ZPE) and 100% inhibition (PBS row, HPE) were calculated;
2. Inhibition rate (%)=(1−(sample value-average value of 100% inhibition)/(average value of 0% inhibition-average value of 100% inhibition))*100;
3. The curve was fitted by GraphPad 8.0 software;

A short description of data set [1]: Pharmacokinetic evaluation in CD-1 (ICR) mice, oral. Particulars: male CD-1 (ICR) mice, oral 5 mg/kg, plasma. In kind it is in vivo, mouse. How it is done:
Experimental Scheme of Compounds 18, 19 and 20
The healthy adult male CD-1 (ICR) mice used in this study were purchased from Pinghu Weitong Lihua Experimental Animal Technology Co., Ltd.
0.300 mL of the stock solution was measured and vortexed for 2 minutes to obtain a homogeneous suspension at a concentration of 1 mg/mL, and the administration vehicle was 1% HPMC in water.
Two male CD-1 (ICR) mice were given 5 mg/kg of the compound to be tested by intragastric administration.
The blood of two animals was collected at each time point by serial blood collection. 30 μL of whole blood was collected respectively at 0.25, 0.5, 1, 2, 4, 8, and 24 hours after administration. The whole blood was placed in an anticoagulant tube, centrifuged at 3200 g for 10 minutes at 4° C., plasma was prepared and stored at −60° C. or lower. The drug concentration in plasma was determined by LC/MS-MS.

Each structure is given as a SMILES string.

Sequence of CDK1/CyclinB1 (P06493 whole entry): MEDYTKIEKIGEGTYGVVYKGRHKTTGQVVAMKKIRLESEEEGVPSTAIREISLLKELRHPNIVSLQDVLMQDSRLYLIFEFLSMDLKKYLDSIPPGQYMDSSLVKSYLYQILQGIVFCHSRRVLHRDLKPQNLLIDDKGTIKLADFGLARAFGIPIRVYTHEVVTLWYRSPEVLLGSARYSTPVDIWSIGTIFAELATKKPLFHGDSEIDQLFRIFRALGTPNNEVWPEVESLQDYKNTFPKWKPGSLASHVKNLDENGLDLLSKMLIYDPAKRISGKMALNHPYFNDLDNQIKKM
Sequence of CDK1/CyclinB1 (P14635 whole entry partner): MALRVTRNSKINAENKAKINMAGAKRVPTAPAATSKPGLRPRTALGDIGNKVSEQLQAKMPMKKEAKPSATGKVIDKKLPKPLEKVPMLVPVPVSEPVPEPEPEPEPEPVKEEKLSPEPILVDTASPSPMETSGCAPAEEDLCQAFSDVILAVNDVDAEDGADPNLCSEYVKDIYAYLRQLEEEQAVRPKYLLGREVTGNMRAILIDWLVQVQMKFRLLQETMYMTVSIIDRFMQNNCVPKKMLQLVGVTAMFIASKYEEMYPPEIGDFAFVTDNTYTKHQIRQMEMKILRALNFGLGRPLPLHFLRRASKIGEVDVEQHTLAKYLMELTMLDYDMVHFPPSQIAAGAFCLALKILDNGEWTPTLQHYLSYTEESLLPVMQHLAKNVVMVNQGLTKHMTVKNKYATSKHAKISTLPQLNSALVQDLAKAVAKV

Take `CS(=O)(=O)N1CCC(Nc2ncc3cc(C(F)F)nc(N[C@@H]4CCCC4(F)F)c3n2)CC1` (single isomer, unassigned) [Compound 22]: the results for the IC50 at CDK1/CyclinB1 and in the data set on OVCAR-3 cells were 0.00886 µM and 0.044 µM, respectively.

On to `Cc1cn(C)nc1Nc1nc(C(F)F)cc2cnc(NC3CCN(S(C)(=O)=O)CC3)nc12` [Compound 19], for which, in data set [1], the “Oral exposure AUC0-t” value was 3143 nM·h. The molecule also displayed an IC50 with OVCAR-3 cells of 0.029 µM.

With `Cn1cc(Cl)c(Nc2nc(C(F)F)cc3cnc(NC4CCN(S(C)(=O)=O)CC4)nc23)n1` [Compound 20], the “Oral exposure AUC0-t” value in data set [1] is 2746 nM·h. In addition, in the data set on OVCAR-3 cells, the IC50 stood at 0.012 µM.
